In ChEMBL document CHEMBL1212746, “Assessment of the in vitro kinetic activity of caspofungin against Candida glabrata” (2010):
≈ marks a conversion by molar mass, not a printed value.

Key:
[1] = test system: Nakaseomyces glabratus; experiment: Antifungal activity against Candida glabrata by broth microdilution assay; assay type: functional
[2] = test system: Nakaseomyces glabratus; experiment: Antifungal activity against Candida glabrata assessed as fungicidal activity by broth microdilution assay; assay type: functional
[3] = test system: Nakaseomyces glabratus; experiment: Antifungal activity against fluconazole-resistant Candida glabrata isolate 04 in presence of fluconazole by broth microdilution assay; assay type: functional
[4] = test system: Nakaseomyces glabratus; experiment: Antifungal activity against fluconazole-resistant Candida glabrata isolate 05 in presence of amphotericin B by broth microdilution assay
[5] = test system: Nakaseomyces glabratus; experiment: Antifungal activity against fluconazole-resistant Candida glabrata isolate 02 by broth microdilution assay; assay type: functional
[6] = test system: Nakaseomyces glabratus; experiment: Antifungal activity against fluconazole-resistant Candida glabrata isolate 01 by broth microdilution assay; assay type: functional
[7] = test system: Nakaseomyces glabratus; experiment: Antifungal activity against fluconazole-susceptible Candida glabrata isolate 03 in presence of fluconazole by broth microdilution assay
[8] = test system: Nakaseomyces glabratus; experiment: Antifungal activity against Candida glabrata assessed as time to kill at 1 ug/ml; assay type: functional
[9] = test system: Nakaseomyces glabratus; experiment: Antifungal activity against fluconazole-resistant Candida glabrata isolate 04 by broth microdilution assay; assay type: functional
[10] = test system: Nakaseomyces glabratus; experiment: Antifungal activity against fluconazole-resistant Candida glabrata isolate 01 in presence of fluconazole by broth microdilution assay; assay type: functional
[11] = test system: Nakaseomyces glabratus; experiment: Antifungal activity against fluconazole-resistant Candida glabrata isolate 03 by broth microdilution assay; assay type: functional
[12] = test system: Nakaseomyces glabratus; experiment: Antifungal activity against fluconazole-resistant Candida glabrata isolate 05 by broth microdilution assay; assay type: functional
[13] = test system: Nakaseomyces glabratus; experiment: Antifungal activity against fluconazole-resistant Candida glabrata isolate 02 in presence of voriconazole by broth microdilution assay
[14] = test system: Nakaseomyces glabratus; experiment: Antifungal activity against Candida glabrata assessed as time to kill at 4 ug/ml; assay type: functional

Row | Compound | MIC50 [1] | MIC90 [1] | MFC [2] | fractional inhibitory concentration index (FICI) [3] | fractional inhibitory concentration index (FICI) [4] | MIC [5] | MIC [6] | fractional inhibitory concentration index (FICI) [7] | Time [8] | MIC [9] | fractional inhibitory concentration index (FICI) [10] | MIC [11] | MIC [12] | fractional inhibitory concentration index (FICI) [13] | Time [14]
1 | C[C@@H]1[C@H](O)[C@@H](C)/C=C/C=C/C=C/C=C/C=C/C=C/C=C/[C@H](O[C@@H]2O[C@H](C)[C@@H](O)[C@H](N)[C@@H]2O)C[C@@H]2O[C@](O)(C[C@@H](O)C[C@@H](O)[C@H](O)CC[C@@H](O)C[C@@H](O)CC(=O)O[C@H]1C)C[C@H](O)[C@H]2C(=O)O [AMPHOTERICIN B] | 0.5 µg/mL (≈ 0.541 µM) | 1 µg/mL (≈ 1.08 µM) | 1 µg/mL |  |  |  |  |  |  |  |  |  |  |  | 
2 | CC[C@H](C)C[C@H](C)CCCCCCCCC(=O)N[C@H]1C[C@@H](O)[C@@H](NCCN)NC(=O)[C@@H]2[C@@H](O)CCN2C(=O)[C@H]([C@H](O)CCN)NC(=O)[C@H]([C@H](O)[C@@H](O)c2ccc(O)cc2)NC(=O)[C@@H]2C[C@@H](O)CN2C(=O)[C@H]([C@@H](C)O)NC1=O [CASPOFUNGIN] | 0.5 µg/mL (≈ 0.457 µM) | 2 µg/mL (≈ 1.83 µM) | 4 µg/mL | 0.5625 | 1.06 | 0.25 µg/mL (≈ 0.229 µM) | 0.5 µg/mL (≈ 0.457 µM) | 0.185 | 4 h | 0.5 µg/mL (≈ 0.457 µM) | <0.5 | 0.5 µg/mL (≈ 0.457 µM) | 0.25 µg/mL (≈ 0.229 µM) | 0.56 | 2 h
3 | OC(Cn1cncn1)(Cn1cncn1)c1ccc(F)cc1F [FLUCONAZOLE] | 4 µg/mL (≈ 13.1 µM) | 32 µg/mL (≈ 104 µM) | > 128 µg/mL |  |  | 64 µg/mL (≈ 209 µM) | 128 µg/mL (≈ 418 µM) |  |  | 32 µg/mL (≈ 104 µM) |  | 2 µg/mL (≈ 6.53 µM) | 1 µg/mL (≈ 3.27 µM) |  | 
4 | C[C@@H](c1ncncc1F)[C@](O)(Cn1cncn1)c1ccc(F)cc1F [VORICONAZOLE] | 0.125 µg/mL (≈ 0.358 µM) | 1 µg/mL (≈ 2.86 µM) | > 32 µg/mL |  |  |  |  |  |  |  |  |  |  |  | 
